Measurements from patent US20130165368A1, “ANTIMICROBIAL COMPOUNDS” (priority 2010, published 2013).
Values after ≈ are worked out from the molar mass of the structure shown. Where two headings read alike, the source gives them in different places.

What was measured:
Type in all cases: cell-based
[1] = system: Escherichia coli; assay: MIC agar dilution, micro-organism 1 (10418); conditions: Escherichia coli 10418, read-out: MIC
Protocol: (§1) Throughout the period of testing the microbial strains were subcultured and incubated for 18-20 hours at 37° C. on a weekly basis. Horse blood agar plates were used to sustain the micro-organisms both prior to and throughout testing. The alkoxylated alkanols listed in Table II below were obtained (these are obtainable from Sigma-Aldrich Company Ltd, Dorset, England), each having a GC purity of at least 97%.
(§2) Molar equivalent concentrations were used to allow comparison between compounds of differing molecular mass. Due to weighing difficulties, any compound in solid form was melted in a water bath prior to dilution. To make ten-times strength concentrations, which takes into account agar dilution, 0.0352 mmol of each compound was weighed into plastic universal bottles and 4 mL of sterile distilled water (SDW) was added. To produce a homogenous emulsion the universals were vortexed; once achieved the emulsions were serial diluted by adding 2 mL to 2 mL of SDW.
(§3) Myristyl alcohol and lauryl alcohol were re-weighed and dissolved in 25 μL of the polar solvent 1-methyl-2-pyrrolidone (M6762; Sigma-Aldrich) in sterile glass universals due to an inability to achieve an even suspension. To maintain an even emulsion in the presence of SDW 37.5 μL of the non-ionic detergent Tween 20 (P1379, Sigma-Aldrich) was also added. 3.9375 mL of SDW was added to these, to create a 4 mL volume; they were vortexed and diluted as before.
(§4) For every 100 mL of Isosensitest agar (IST) (CM0471; Oxoid, Basingstoke, England), 3.1 g of the IST powder was added to 100 mL SDW (as per manufacturer's instructions) and sterilised for 15 minutes at 121° C. Once sterilised, the molten agar was cooled to 50° C. in a water-bath. Subsequently 4.8 g of CCEY powder (BC2160; Bioconnections, Wetherby, England), also known as Brazier's medium, was added to 100 mL SDW for every 100 mL of agar needed. This was then sterilised for 15 minutes at 121° C. Once sterilised the molten agar was cooled to 50° C. in a water-bath and 4 mL of egg-yolk emulsion (S2073; TCS Biosciences Ltd, Buckingham, United Kingdom) and 1 mL of lysed defibrinated horse blood (HB035; TCS Biosciences Ltd, Buckingham, United Kingdom) were also added for every 100 mL needed. Horse blood lysis is achieved by dilution to half concentration with SDW; when fully lysed the mixture will turn dark red in colour.
(§5) 18 mL agar was added to each universal and then poured into sterile Petri dishes. This step creates a 1/10 dilution resulting in agar plates of the required strength. Control plates for each set of strains were created by adding 18 mL of agar to 2 mL of SDW.
(§6) Suspensions of each bacterial species were prepared with a density equal to that of a 0.5 McFarland standard using a densitometer. All suspensions were made using sterile distilled water and fresh 18-20 hour cultures. As a 0.5 McFarland standard contains 1.5×10^8 CFU/mL and the multipoint inoculators applies 1 μL spots of liquid, each bacterial suspension was diluted 1/15 (20 μL suspension to 280 μL sterile distilled water).
(§7) Bacterial suspensions were prepared from fresh 18-24 hour cultures as previously described. 1 μL of each strain was inoculated onto all 100 agar plates containing a different chemical concentration and the 2 control plates. This was done using a multipoint inoculator which inoculates 20 strains per plate. All plates were incubated for 22 hours at 37° C. in aerobic conditions.
(§8) Each plate was examined for bacterial growth after 22 and 48 hours, with each being incubated in between examinations. A positive result was recorded as growth of ≧10 colonies. A negative result was recorded as growth of <10 colonies as this is equivalent to 99.9% inhibition. The lowest concentration of chemical that inhibited growth was recorded as the MIC. The results are recorded in Table IV below, where the numbers are quoted in mmol/L. […]

[2] = system: Klebsiella pneumoniae; assay: MIC agar dilution, micro-organism 2 (9528); conditions: Klebsiella pneumoniae 9528; 48 hrs; read-out: MIC
Protocol: as §1, §2, §3, §4, §5, §6, §7
(§9) Each plate was examined for bacterial growth after 22 and 48 hours, with each being incubated in between examinations. A positive result was recorded as growth of ≧10 colonies. A negative result was recorded as growth of <10 colonies as this is equivalent to 99.9% inhibition. The lowest concentration of chemical that inhibited growth was recorded as the MIC. The results are recorded in Table IV below, where the numbers are quoted in mmol/L.
(§10) Further experiments have also been conducted to determine the MIC of a number of other compositions as follows. […]

[3] = system: Providencia rettgeri; assay: MIC agar dilution, micro-organism 3 (7475); conditions: Providencia rettgeri 7475, read-out: MIC
Protocol: as §1, §2, §3, §4, §5, §6, §7, §8

[4] = system: Enterobacter cloacae; assay: MIC agar dilution, micro-organism 4 (11936); conditions: Enterobacter cloacae 11936; 48 hrs; read-out: MIC
Protocol: as §1, §2, §3, §4, §5, §6, §7, §9, §10

[5] = system: Serratia marcescens; assay: MIC agar dilution, micro-organism 5 (10211); conditions: Serratia marcescens 10211; 48 hrs; read-out: MIC
Protocol: as §1, §2, §3, §4, §5, §6, §7, §9, §10

[6] = system: Salmonella typhimurium; assay: MIC agar dilution, micro-organism 6 (74); conditions: Salmonella enterica; Salmonella typhimurium 74; 48 hrs; read-out: MIC
Protocol: as §1, §2, §3, §4, §5, §6, §7, §9, §10

[7] = system: Pseudomonas aeruginosa; assay: MIC agar dilution, micro-organism 7 (10662); conditions: Pseudomonas aeruginosa 10662; 48 hrs; read-out: MIC
Protocol: as §1, §2, §3, §4, §5, §6, §7, §9, §10

[8] = system: Yersinia enterocolitica; assay: MIC agar dilution, micro-organism 8 (11176); conditions: Yersinia enterocolitica 11176; 48 hrs; read-out: MIC
Protocol: as §1, §2, §3, §4, §5, §6, §7, §9, §10

[9] = system: Burkholderia cepacia; assay: MIC agar dilution, micro-organism 9 (1222); conditions: Burkholderia cepacia 1222; 48 hrs; read-out: MIC
Protocol: as §1, §2, §3, §4, §5, §6, §7, §9, §10

[10] = system: Acinetobacter baumannii; assay: MIC agar dilution, micro-organism 10 (19606); conditions: Acinetobacter baumannii 19606; 48 hrs; read-out: MIC
Protocol: as §1, §2, §3, §4, §5, §6, §7, §9, §10

[11] = system: Steptococcus pyogenes; assay: MIC agar dilution, micro-organism 11 (8306); conditions: Steptococcus pyogenes 8306, read-out: MIC
Protocol: as §1, §2, §3, §4, §5, §6, §7, §8

[12] = system: Staphylococcus aureus (MRSA); assay: MIC agar dilution, micro-organism 12 (11939); conditions: Staphylococcus aureus, MRSA, Staphylococcus aureus (MRSA) 11939, read-out: MIC
Protocol: as §1, §2, §3, §4, §5, §6, §7, §8

[13] = system: Staphylococcus aureus; assay: MIC agar dilution, micro-organism 13 (6571); conditions: Staphylococcus aureus, Staphylococcus aureus 6571, read-out: MIC
Protocol: as §1, §2, §3, §4, §5, §6, §7, §8

[14] = system: Staphylococcus epidermidis; assay: MIC agar dilution, micro-organism 14 (11047); conditions: Staphylococcus epidermidis 11047, read-out: MIC
Protocol: as §1, §2, §3, §4, §5, §6, §7, §8

[15] = system: Listeria monocytogenes; assay: MIC agar dilution, micro-organism 15 (11994); conditions: Listeria monocytogenes 11994, read-out: MIC
Protocol: as §1, §2, §3, §4, §5, §6, §7, §8

[16] = system: Enterococcus faecium; assay: MIC agar dilution, micro-organism 16 (7171); conditions: Enterococcus faecium 7171, read-out: MIC
Protocol: as §1, §2, §3, §4, §5, §6, §7, §8

[17] = system: Enterococcus faecalis; assay: MIC agar dilution, micro-organism 17 (775); conditions: Enterococcus faecalis 775, read-out: MIC
Protocol: as §1, §2, §3, §4, §5, §6, §7, §8

[18] = system: Bacillus subtilis; assay: MIC agar dilution, micro-organism 18 (9372); conditions: Bacillus subtilis 9372, read-out: MIC
Protocol: as §1, §2, §3, §4, §5, §6, §7, §8

[19] = system: Candida albicans; assay: MIC agar dilution, micro-organism 19 (90028); conditions: Candida albicans 90028, read-out: MIC
Protocol: as §1, §2, §3, §4, §5, §6, §7, §8

[20] = system: Candida glabrata; assay: MIC agar dilution, micro-organism 20 (3943); conditions: Nakaseomyces glabratus, Candida glabrata 3943, read-out: MIC
Protocol: as §1, §2, §3, §4, §5, §6, §7, §8

[21] = system: Gram negative bacteria, Gram positive bacteria and pathogenic yeasts; assay: MIC agar dilution, summary statements over the micro-organisms tested (Tables I, IX); conditions: over the micro-organisms tested or some of them; read-out: MIC
Description: For a better understanding, the present invention will now be more particularly described, by way of non-limiting example only, as follows. The micro-organisms shown in Table I overleaf were acquired from the National Collection of Type Cultures (NCTC), Colindale, United Kingdom; the American Type Culture Collection (ATCC), Manassas, United States and the National Collection of Pathogenic Fungi (NCPF), Colindale, United Kingdom. They include Gram negative bacteria, Gram positive bacteria and pathogenic yeasts.
as §1, §2, §3, §4, §5, §6
Bacterial suspensions were prepared from fresh 18-24 hour cultures as previously described. 1 μL of each strain was inoculated onto all 100 agar plates containing a different chemical concentration and the 2 control plates. This was done using a multipoint inoculator which inoculates 20 strains per plate. All plates were incubated for 22 hours at 37° C. in aerobic conditions. […]

Compound	MIC ([1]; 48 hrs) [µM]	MIC ([3]; 48 hrs) [µM]	MIC ([11]; 48 h, 48 hrs) [µM]	MIC ([12]; 48 h, 48 hrs) [µM]	MIC ([13]; 48 h, 48 hrs) [µM]	MIC ([14]; 48 hrs) [µM]	MIC ([15]; 48 hrs) [µM]	MIC ([16]; 48 hrs) [µM]	MIC ([17]; 48 hrs) [µM]	MIC ([18]; 48 hrs) [µM]	MIC ([19]; 48 hrs) [µM]	MIC ([20]; 48 h, 48 hrs) [µM]	MIC ([1]; 22 hrs) [µM]	MIC ([3]; 22 hrs) [µM]	MIC ([11]; 22 h, 22 hrs) [µM]	MIC ([12]; 22 h, 22 hrs) [µM]	MIC ([13]; 22 h, 22 hrs) [µM]	MIC ([14]; 22 hrs) [µM]	MIC ([15]; 22 hrs) [µM]	MIC ([16]; 22 hrs) [µM]	further results
CCCCCCCCCCCCOCC(C)O (racemic) [PG1, 1-methyl-3-oxapentadecanol]	> 880	880 (≈ 215 µg/mL)	> 880	880 (≈ 215 µg/mL)	> 880	> 880	> 880	> 880	> 880	> 880	> 880	> 880									MIC [2]: > 880 µM; MIC [4]: > 880 µM; MIC [5]: > 880 µM; MIC [6]: > 880 µM; MIC [7]: > 880 µM; MIC [8]: > 880 µM; MIC [9]: > 880 µM; MIC [10]: > 880 µM
CCCCCCCCCCO [D0, 1-Decanol, reference compound]	> 880	> 880	> 880	> 880	> 880	> 880	> 880	> 880	> 880	> 880	> 880	> 880	> 880	> 880	> 880	> 880	> 880	> 880	> 880	> 880	MIC ([17]; 22 hrs): > 880 µM; MIC ([18]; 22 hrs): > 880 µM; MIC ([19]; 22 hrs): > 880 µM; MIC ([20]; 22 h, 22 hrs): > 880 µM; MIC [21]: > 880 µM
CCCCCCCCCCOCCO [D1, Ethylene Glycol Monodecyl Ether, reference compound]	> 880	> 880	> 880	> 880	> 880	> 880	> 880	> 880	> 880	> 880	> 880	> 880	> 880	> 880	> 880	> 880	> 880	> 880	> 880	> 880	MIC ([17]; 22 hrs): > 880 µM; MIC ([18]; 22 hrs): > 880 µM; MIC ([19]; 22 hrs): > 880 µM; MIC ([20]; 22 h, 22 hrs): > 880 µM; MIC [21]: > 880 µM
CCCCCCCCCCCCCCOCCOCCOCCOCCO [M4, Tetraethylene Glycol Monotetradecyl Ether]	> 880	> 880	27.5 (≈ 10.7 µg/mL)	110 (≈ 43 µg/mL)	55 (≈ 21.5 µg/mL)	110 (≈ 43 µg/mL)	> 880	> 880	220 (≈ 85.9 µg/mL)	220 (≈ 85.9 µg/mL)	> 880	> 880	> 880	> 880	27.5 (≈ 10.7 µg/mL)	110 (≈ 43 µg/mL)	55 (≈ 21.5 µg/mL)	55 (≈ 21.5 µg/mL)	440 (≈ 172 µg/mL)	> 880	MIC ([17]; 22 hrs): 220 µM (≈ 85.9 µg/mL); MIC ([18]; 22 hrs): 220 µM (≈ 85.9 µg/mL); MIC ([19]; 22 hrs): > 880 µM; MIC ([20]; 22 h, 22 hrs): > 880 µM; MIC [21]: < 220 µM
